The values below come from patent US9522914B2, “Azole derivative” (TAISHO PHARMACEUTICAL CO., LTD, priority 2011, dated 2016).

The structures appear in SMILES notation.

Sequence of Human V1b receptor (P47901 whole entry): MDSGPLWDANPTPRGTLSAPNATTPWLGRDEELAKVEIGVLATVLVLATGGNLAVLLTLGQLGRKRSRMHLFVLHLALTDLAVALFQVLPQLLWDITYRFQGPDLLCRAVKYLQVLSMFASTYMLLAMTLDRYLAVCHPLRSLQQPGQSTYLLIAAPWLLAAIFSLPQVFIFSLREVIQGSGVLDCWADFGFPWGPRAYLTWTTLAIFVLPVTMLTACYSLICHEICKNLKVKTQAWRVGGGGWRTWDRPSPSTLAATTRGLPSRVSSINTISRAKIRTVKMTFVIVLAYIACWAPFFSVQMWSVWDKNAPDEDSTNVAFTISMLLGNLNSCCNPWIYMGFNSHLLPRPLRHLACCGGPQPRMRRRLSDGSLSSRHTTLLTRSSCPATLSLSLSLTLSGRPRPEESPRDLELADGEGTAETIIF

The assay addresses Human V1b receptor (Homo sapiens (Human), UniProt P47901). As to the kind of experiment: Binding Test for V1b Receptor ([3H]AVP, crude membrane preparation of 293FT cells). The settings on record: inhibition of [3H]AVP binding (0.4 to 1 nmol/L), room temperature, 60 minutes. How it is done: Binding Test for V1b Receptor
Human V1b receptor was transiently expressed in 293FT cells (Invitrogen). The cells were collected and then homogenated in a 15 mmol/L tris-hydrochloric acid buffer (pH 7.4 and containing 2 mmol/L magnesium chloride, 0.3 mmol/L ethylenediaminetetracetic acid, and 1 mmol/L glycol ether diaminetetraacetic acid). The resulting homogenate was centrifuged at 50,000×g at 4° C. for 20 minutes. The precipitate was resuspended in a 75 mmol/L tris-hydrochloric acid buffer (pH 7.4 and containing 12.5 mmol/L magnesium chloride, 0.3 mmol/L ethylenediaminetetracetic acid, 1 mmol/L glycol ether diaminetetraacetic acid, and 250 mmol/L sucrose) to give a crude membrane preparation, which was stored at −80° C. until the binding test was initiated. In the binding test, the crude membrane preparation was diluted with a 50 mmol/L tris-hydrochloric acid buffer (pH 7.4 and containing 10 mmol/L magnesium chloride and 0.1% bovine serum albumin) and mixed with each test compound and [^3H]AVP (final concentration: 0.4 to 1 nmol/L), followed by incubation at room temperature for 60 minutes. The test compound was serially diluted with DMSO so that it would have final concentrations of 0.01 nmol/L to 1 μmol/L at the time of mixing. After the incubation, the mixture was suction filtered through a GF/C filter that was preliminarily impregnated with 0.3% polyethyleneimine. The GF/C filter was dried and after adding a scintillator, the residual radioactivity on the filter was measured using TopCount (PerkinElmer Inc.). The radioactivity in the presence of unlabeled AVP at […] was defined as 0%, and the radioactivity in the absence of unlabeled AVP was defined as 100%. A dose-response curve was plotted from radio activities in the presence of a test compound at various concentrations, and the 50% inhibitory concentration (IC50 value) of the test compound was calculated.
`CC(C)NC(=O)Cn1nc(-c2ccc(CCN3C4CCC3COC4)cn2)nc1-c1ccc(F)c(Cl)c1` [Example B-08, 2-[5-(3-chloro-4-fluorophenyl)-3-{5-[2-(3-oxa-8-azabicyclo[3.2.1]oct-8-yl)ethyl]pyridin-2-yl}-1H-1,2,4-triazol-1-yl]-N-(propan-2-yl)acetamide] registered a half-maximal inhibitory concentration (IC50) of 2.8 nM.

Regarding `CC(C)(C)NC(=O)Cn1nc(-c2ccc(CCN3C4CCC3COC4)cn2)nc1-c1cccc(Cl)c1` [Example B-09, N-tert-butyl-2-[5-(3-chlorophenyl)-3-{5-[2-(3-oxa-8-azabicyclo[3.2.1]oct-8-yl)ethyl]pyridin-2-yl}-1H-1,2,4-triazol-1-yl]acetamide], the IC50 amounted to 2.2 nM.

Turning to `CC(C)NC(=O)Cn1nc(-c2ccc(CCN3CCOCC3)cn2)nc1-c1cccc(Cl)c1` [Example B-10, 2-[5-(3-chlorophenyl)-3-{5-[2-(morpholin-4-yl)ethyl]pyridin-2-yl}-1H-1,2,4-triazol-1-yl]-N-(propan-2-yl)acetamide], the 50% inhibitory concentration (IC50) is 12 nM.

In the case of `CC(C)(C)NC(=O)Cn1nc(-c2ccc(CCN3CCOCC3)cn2)nc1-c1cccc(Cl)c1` [Example B-11, N-tert-butyl-2-[5-(3-chlorophenyl)-3-{5-[2-(morpholin-4-yl)ethyl]pyridin-2-yl}-1H-1,2,4-triazol-1-yl]acetamide], the half-maximal inhibitory concentration (IC50) worked out at 5.1 nM.

Regarding `CC(C)NC(=O)Cn1nc(-c2ccc(CCN3CCOCC3)cn2)nc1-c1ccc(F)c(Cl)c1` [Example B-12, 2-[5-(3-chloro-4-fluorophenyl)-3-{5-[2-(morpholin-4-yl)ethyl]pyridin-2-yl}-1H-1,2,4-triazol-1-yl]-N-(propan-2-yl)acetamide], the IC50 worked out at 6.3 nM.

Take `COc1cc(-c2nc(-c3ccc(CCN4CCOCC4)cn3)nn2CC(=O)NC(C)C)ccc1F` [Example B-13, 2-[5-(4-fluoro-3-methoxyphenyl)-3-{5-[2-(morpholin-4-yl)ethyl]pyridin-2-yl}-1H-1,2,4-triazol-1-yl]-N-(propan-2-yl)acetamide]: the 50% inhibitory concentration (IC50) was 8.9 nM.

The compound `COc1cccc(-c2nc(-c3ccc(CCN4CCOCC4)cn3)nn2CC(=O)NC(C)(C)C)c1` [Example B-14, N-tert-butyl-2-[5-(3-methoxyphenyl)-3-{5-[2-(morpholin-4-yl)ethyl]pyridin-2-yl}-1H-1,2,4-triazol-1-yl]acetamide] came in with an IC50 of 6.6 nM.

The compound `COc1cccc(-c2nc(-c3ccc(CCN4CCOCC4)cn3)nn2CC(=O)NC(C)C)c1` [Example B-15, 2-[5-(3-methoxyphenyl)-3-{5-[2-(morpholin-4-yl)ethyl]pyridin-2-yl}-1H-1,2,4-triazol-1-yl]-N-(propan-2-yl)acetamide] yielded a half-maximal inhibitory concentration (IC50) of 31 nM.

Turning to `COc1cccc(-c2nc(-c3ccc(CCN4CCOCC4)cc3)nn2CC(=O)NC(C)C)c1` [Example B-16, 2-[5-(3-methoxyphenyl)-3-{4-[2-(morpholin-4-yl)ethyl]phenyl}-1H-1,2,4-triazol-1-yl]-N-(propan-2-yl)acetamide], the IC50 was 5.3 nM.

Turning to `COc1cccc(-c2nc(-c3ccc(CCN4C5CCC4COC5)cc3)nn2CC(=O)NC(C)C)c1` [Example B-17, 2-[5-(3-methoxyphenyl)-3-{4-[2-(3-oxa-8-azabicyclo[3.2.1]oct-8-yl)ethyl]phenyl}-1H-1,2,4-triazol-1-yl]-N-(propan-2-yl)acetamide], the IC50 came to 1.4 nM.

As to `COc1cccc(-c2nc(-c3ccc(CCN4CCOCC4)cc3F)nn2CC(=O)NC(C)C)c1` [Example B-18, 2-[3-{2-fluoro-4-[2-(morpholin-4-yl)ethyl]phenyl}-5-(3-methoxyphenyl)-1H-1,2,4-triazol-1-yl]-N-(propan-2-yl)acetamide], the half-maximal inhibitory concentration (IC50) came out at 7.2 nM.

Take `COc1cccc(-c2nc(-c3ccc(CCN4CCOCC4)c(F)c3)nn2CC(=O)NC(C)C)c1` [Example B-19, 2-[3-{3-fluoro-4-[2-(morpholin-4-yl)ethyl]phenyl}-5-(3-methoxyphenyl)-1H-1,2,4-triazol-1-yl]-N-(propan-2-yl)acetamide]: the IC50 was found to be 6.9 nM.

The compound `COc1cccc(-c2nc(-c3ccc(CC(C)N4C5CCC4COC5)cc3)nn2CC(=O)NC(C)C)c1` (stereo not drawn) [Example B-20, 2-[5-(3-methoxyphenyl)-3-{4-[2-(3-oxa-8-azabicyclo[3.2.1]oct-8-yl)propyl]phenyl}-1H-1,2,4-triazol-1-yl]-N-(propan-2-yl)acetamide] came in with a 50% inhibitory concentration (IC50) of 0.43 nM.

`COc1cccc(-c2nc(-c3ccc(CCN4CCCC4)cc3)nn2CC(=O)NC(C)C)c1` [Example B-21, 2-[5-(3-methoxyphenyl)-3-{4-[2-(pyrrolidin-1-yl)ethyl]phenyl}-1H-1,2,4-triazol-1-yl]-N-(propan-2-yl)acetamide]: the half-inhibitory concentration (IC50) was 10 to 100 nM.

In the case of `COc1cccc(-c2nc(-c3ccc(CCN4CC=CCC4)cc3)nn2CC(=O)NC(C)C)c1` [Example B-22, 2-[3-{4-[2-(3,6-dihydropyridin-1(2H)-yl)ethyl]phenyl}-5-(3-methoxyphenyl)-1H-1,2,4-triazol-1-yl]-N-(propan-2-yl)acetamide], the half-maximal inhibitory concentration (IC50) lay in the range of 10 to 100 nM.

`COc1cccc(-c2nc(-c3ccc(CCN4CCC(C)CC4)cc3)nn2CC(=O)NC(C)C)c1` [Example B-23, 2-[5-(3-methoxyphenyl)-3-{4-[2-(4-methylpiperidin-1-yl)ethyl]phenyl}-1H-1,2,4-triazol-1-yl]-N-(propan-2-yl)acetamide] had a half-maximal inhibitory concentration (IC50) of 10 to 100 nM.

As for `COc1cccc(-c2nc(-c3ccc(CCN4CCC(C#N)CC4)cc3)nn2CC(=O)NC(C)C)c1` [Example B-24, 2-[3-{4-[2-(4-cyanopiperidin-1-yl)ethyl]phenyl}-5-(3-methoxyphenyl)-1H-1,2,4-triazol-1-yl]-N-(propan-2-yl)acetamide], the concentration for half-maximal inhibition (IC50) is 100 to 1000 nM.

Compound `COc1cccc(-c2nc(-c3ccc(CCN4CCCC(OC)C4)cc3)nn2CC(=O)NC(C)C)c1` (stereo not drawn) [Example B-25, 2-[5-(3-methoxyphenyl)-3-{4-[2-(3-methoxypiperidin-1-yl)ethyl]phenyl}-1H-1,2,4-triazol-1-yl]-N-(propan-2-yl)acetamide] yielded an IC50 of 10 to 100 nM.

Consider `COc1cccc(-c2nc(-c3ccc(CCN4CCC(N(C)C)CC4)cc3)nn2CC(=O)NC(C)C)c1` [Example B-26, 2-[3-(4-{2-[4-(dimethylamino)piperidin-1-yl]ethyl}phenyl)-5-(3-methoxyphenyl)-1H-1,2,4-triazol-1-yl]-N-(propan-2-yl)acetamide], for which the IC50 was in the range of 100 to 1000 nM.

In turn, `COc1cccc(-c2nc(-c3ccc(CCN4CCC5CCCCC5C4)cc3)nn2CC(=O)NC(C)C)c1` (stereo not drawn) [Example B-27, 2-[5-(3-methoxyphenyl)-3-{4-[2-(octahydroisoquinolin-2(1H)-yl)ethyl]phenyl}-1H-1,2,4-triazol-1-yl]-N-(propan-2-yl)acetamide] came in with an IC50 of 10 to 100 nM.

In turn, `COc1cccc(-c2nc(-c3ccc(CCN4CCSCC4)cc3)nn2CC(=O)NC(C)C)c1` [Example B-28, 2-[5-(3-methoxyphenyl)-3-{4-[2-(thiomorpholin-4-yl)ethyl]phenyl}-1H-1,2,4-triazol-1-yl]-N-(propan-2-yl)acetamide] had an IC50 below 10 nM.

For `COc1cccc(-c2nc(-c3ccc(CCN4C[C@@H](C)O[C@@H](C)C4)cc3)nn2CC(=O)NC(C)C)c1` [Example B-29, 2-[3-(4-{2-[(2R,6S)-2,6-dimethylmorpholin-4-yl]ethyl}phenyl)-5-(3-methoxyphenyl)-1H-1,2,4-triazol-1-yl]-N-(propan-2-yl)acetamide], the IC50 is 10 to 100 nM.

In the case of `COc1cccc(-c2nc(-c3ccc(CCN4CCOCC4C)cc3)nn2CC(=O)NC(C)C)c1` (stereo not drawn) [Example B-30, 2-[5-(3-methoxyphenyl)-3-{4-[2-(3-methylmorpholin-4-yl)ethyl]phenyl}-1H-1,2,4-triazol-1-yl]-N-(propan-2-yl)acetamide], the IC50 lay within 10 to 100 nM.

Turning to `CCC1COCCN1CCc1ccc(-c2nc(-c3cccc(OC)c3)n(CC(=O)NC(C)C)n2)cc1` (stereo not drawn) [Example B-31, 2-[3-{4-[2-(3-ethylmorpholin-4-yl)ethyl]phenyl}-5-(3-methoxyphenyl)-1H-1,2,4-triazol-1-yl]-N-(propan-2-yl)acetamide], the IC50 was 10 to 100 nM.

Regarding `COc1cccc(-c2nc(-c3ccc(CCN4CCN(C)CC4)cc3)nn2CC(=O)NC(C)C)c1` [Example B-32, 2-[5-(3-methoxyphenyl)-3-{4-[2-(4-methylpiperazin-1-yl)ethyl]phenyl}-1H-1,2,4-triazol-1-yl]-N-(propan-2-yl)acetamide], the IC50 fell in the range of 100 to 1000 nM.

`COc1cccc(-c2nc(-c3ccc(CCN4CCN(C(C)=O)CC4)cc3)nn2CC(=O)NC(C)C)c1` [Example B-33, 2-[3-{4-[2-(4-acetylpiperazin-1-yl)ethyl]phenyl}-5-(3-methoxyphenyl)-1H-1,2,4-triazol-1-yl]-N-(propan-2-yl)acetamide] returned a half-maximal inhibitory concentration (IC50) of 100 to 1000 nM.

With `COc1cccc(-c2nc(-c3ccc(CCN4CCC(C(N)=O)CC4)cc3)nn2CC(=O)NC(C)C)c1` [Example B-34, 1-[2-(4-{5-(3-methoxyphenyl)-1-[2-oxo-2-(propan-2-ylamino)ethyl]-1H-1,2,4-triazol-3-yl}phenyl)ethyl]piperidine-4-carboxamide], the half-inhibitory concentration (IC50) lay in the range of 100 to 1000 nM.

For orientation: IC50 means the concentration needed to halve the response being measured. Read a low IC50 as greater potency.
